# Results: ChEMBL document CHEMBL5050859, “Gpx4 inhibitors, pharmaceutical compositions thereof, and their use for treating gpx4-mediated diseases” (2021)
# Test system: Huh-7
# Assay: Antiproliferative activity against human Huh-7 cells in presence of 1 uM liproxstatin-1 measured after 24 hrs by Cell Titer Glo assay
# Type: functional, cell-based
# Conditions: Huh-7, 24 h
row,SMILES,EC50 [µM]
1,C#CC(=O)N(c1cccc(Cl)c1)C1(C(=O)NCc2ccccc2)CCOCC1,> 10

# Test system: Huh-7
# Assay: Antiproliferative activity against human Huh-7 cells after 24 hrs by Cell Titer Glo assay
# Type: functional, cell-based
# Conditions: Huh-7, 24 h
row,SMILES,EC50 [nM]
1,C#CC(=O)N(c1ccc(CO)cc1)C(C(=O)NC(C)(C)C)c1ccc(N)cc1 (configuration not stated),2000
2,C#CC(=O)N(c1cccc(S(C)(=O)=O)c1)C(C(=O)NC(C)(C)C)c1ccc(N)cc1 (configuration not stated),2000
3,C#CC(=O)N(c1cccc(Cl)c1)[C@]1(C(=O)NCc2ccccc2)CC[C@H](O)CC1,100
4,C#CC(=O)N(c1ccc(OC)c(Cl)c1)C(C(=O)NC(C)(C)C)c1ccc(N)cc1 (configuration not stated),≤ 100
5,C#CC(=O)N(c1ccc(NS(C)(=O)=O)cc1)C(C(=O)NC(C)(C)C)c1ccc(N)cc1 (configuration not stated),> 10000
6,C#CC(=O)N(c1ccc(NS(C)(=O)=O)cc1)C(C(=O)NC(C)(C)C)c1cccc(N)c1 (configuration not stated),> 10000
7,Cn1ncc2cc(N(C(=O)CCBr)C3(C(=O)NCc4ccccc4)CCOCC3)ccc21,> 10000
8,C#CC(=O)N(c1ccc(C(=O)OC)cc1)C(C(=O)NC(C)(C)C)c1ccc(N)cc1 (configuration not stated),≤ 100
9,C#CC(=O)N(c1ccc(O)cc1)C(C(=O)NC(C)(C)C)c1ccc(N)cc1 (configuration not stated),> 10000
10,C#CC(=O)N(c1cccc(Cl)c1)C(C(=O)NC(C)(C)C)c1cccc(N)c1 (configuration not stated),100
11,C#CC(=O)N(c1cccc(Cl)c1)C(C(=O)NC(C)(C)C)c1ccc(N)cc1 (configuration not stated),100
12,C#CC(=O)N(c1ccc(S(N)(=O)=O)cc1)C(C(=O)NC(C)(C)C)c1ccc(N)cc1 (configuration not stated),> 10000
13,C#CC(=O)N(c1cccc(Cl)c1)C1(C(=O)NCc2ccccc2)CCOCC1,≤ 100
14,C#CC(=O)N(c1ccc(OC)cc1)C(C(=O)NC(C)(C)C)c1ccc(N)cc1 (configuration not stated),500
15,C#CC(=O)N(c1ccc(Cl)cc1)C(C(=O)NC(C)(C)C)c1ccc(N)cc1 (configuration not stated),100
16,C#CC(=O)N(c1ccc(N)cc1)C(C(=O)NC(C)(C)C)c1ccc(N)cc1 (configuration not stated),2000
17,C#CC(=O)N(c1ccc(NC(C)=O)cc1)C(C(=O)NC(C)(C)C)c1cccc(N)c1 (configuration not stated),2000
18,N#CCC(=O)N(c1cccc(Cl)c1)C1(C(=O)NCc2ccccc2)CCOCC1,> 10000
19,C#CC(=O)N(c1ccc(OC)c(Cl)c1)C(C(=O)NC(C)(C)C)c1cccc(N)c1 (configuration not stated),100
20,C#CC(=O)N(c1cccc(S(N)(=O)=O)c1)C(C(=O)NC(C)(C)C)c1ccc(N)cc1 (configuration not stated),> 10000
21,C#CC(=O)N(c1ccc(N)cc1)C(C(=O)NC(C)(C)C)c1cccc(N)c1 (configuration not stated),2000
22,C#CC(=O)N(c1cccc(OC)c1)C(C(=O)NC(C)(C)C)c1ccc(N)cc1 (configuration not stated),100
23,C#CC(=O)N(c1ccc(NC(C)=O)cc1)C(C(=O)NC(C)(C)C)c1ccc(N)cc1 (configuration not stated),2000
24,Cn1ncc2cc(N(C(=O)CCCl)C3(C(=O)NCc4ccccc4)CCOCC3)ccc21,> 10000
25,C#CC(=O)N(c1ccc(S(C)(=O)=O)cc1)C(C(=O)NC(C)(C)C)c1ccc(N)cc1 (configuration not stated),2000

# Test system: Huh-7
# Assay: Antiproliferative activity against human Huh-7 cells in presence of 1 uM ferrostatin-1 measured after 24 hrs by Cell Titer Glo assay
# Type: functional, cell-based
# Conditions: Huh-7, 24 h
row,SMILES,EC50 [µM]
1,C#CC(=O)N(c1cccc(Cl)c1)C1(C(=O)NCc2ccccc2)CCOCC1,> 10
